Assay results taken from patent publication US10329289B2, “6,7-dihydro-5H-pyrrolo[3,4-B]pyridin-5-one allosteric modulators of the M4 muscarinic acetylcholine receptor” (Merck Sharp & Dohme Corp., priority 2015, dated 2019).
pEC50: −log10 of the molar value.

These molecules were tested against T1, human M4 muscarinic acetylcholine receptor (Homo sapiens, UniProt P08173) (assay: human FLIPR-based M4 PAM assay (Ca2+ mobilization, CHO-K1 cells with human M4 receptor and Gαqi5)). Conditions: acetylcholine at 20% of maximum response, read-out: M4 PAM IP.
T1 construct: expressed in transfected cells; host or cells: CHO-K1
T1 sequence (P08173 1-479): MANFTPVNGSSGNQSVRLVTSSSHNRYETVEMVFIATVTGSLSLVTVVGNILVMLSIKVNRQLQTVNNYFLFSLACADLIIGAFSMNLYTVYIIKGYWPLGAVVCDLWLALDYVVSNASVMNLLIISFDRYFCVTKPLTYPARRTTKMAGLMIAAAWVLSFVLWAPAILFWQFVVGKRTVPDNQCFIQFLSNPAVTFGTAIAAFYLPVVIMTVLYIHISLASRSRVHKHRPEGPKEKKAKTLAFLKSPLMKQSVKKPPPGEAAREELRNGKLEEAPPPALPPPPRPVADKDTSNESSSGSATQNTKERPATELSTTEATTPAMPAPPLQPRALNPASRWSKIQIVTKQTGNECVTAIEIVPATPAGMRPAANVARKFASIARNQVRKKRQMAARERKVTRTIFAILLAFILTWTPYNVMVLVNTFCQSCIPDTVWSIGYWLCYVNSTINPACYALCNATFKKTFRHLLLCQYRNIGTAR
Assay type: cell-based
Procedure: In a typical experiment the M4 muscarinic acetylcholine receptor modulating activity of the compounds of the present invention was determined in accordance with the following experimental method. CHO-K1 cells stably transfected with human M4 receptor and chimeric G-protein Gαqi5 (Coward P, et al., Analytical Biochemistry, 270:242-248 (1999)) are thawed from liquid N2 storage, resuspended in growth medium, plated in black, clear bottom 384 well plates, and incubated 16-20 hours at 37° C., 5% CO2. On the day of assay, growth medium is removed, the cells are washed 2 times with wash buffer, and cells are incubated in dye loading buffer at 37° C., 5% CO2 for ˜1 hour. […] Next, 10 uL of acetylcholine is added (final concentration calculated so as to achieve 20% of the maximum acetycholine response), and the fluorescence reading is continued for 3.5 min. In some cases, a third addition of acetylcholine (final concentration calculated to achieve 70% of the maximal acetylcholine response) is performed. The resulting dose response curves are fit to a 4 parameter logistic equation and the final result is determined as the inflection point (IP) of the curve
CHO-K1 cells stably transfected with human M4 receptor and chimeric G-protein Gαqi5 are thawed from liquid N2 storage, resuspended in growth medium, plated in black, clear bottom 384 well plates, and incubated 16-20 hours at 37° C., 5% CO2.
On the day of assay, growth medium is removed, the cells are washed 2 times with wash buffer, and cells are incubated in dye loading buffer at 37° C., 5% CO2 for ˜1 h. […] Next, 10 uL of acetylcholine is added (final concentration calculated so as to achieve 20% of the maximum acetycholine response), and the fluorescence reading is continued for 3.5 min. In some cases, a third addition of acetylcholine (final concentration calculated to achieve 70% of the maximal acetylcholine response) is performed.
`Cc1cc2c(nc1N1CCC(Oc3ccc4c(c3)OCCO4)CC1)CNC2=O` [Example 132, 2-(4-((2,3-dihydrobenzo[b][1,4]dioxin-6-yl)oxy)piperidin-1-yl)-3-methyl-6,7-dihydro-5H-pyrrolo[3,4-b]pyridin-5-one] was tested, and the pEC50 was 7.52. `Cc1cc2c(nc1N1CCC(Oc3cccc(C#N)c3)CC1)CN(C)C2=O` [Example 11, 3-((1-(3,6-dimethyl-5-oxo-6,7-dihydro-5H-pyrrolo[3,4-b]pyridin-2-yl)piperidin-4-yl)oxy)benzonitrile] gave a pEC50 of 7.42. `CCN1Cc2nc(N3CCC(Oc4ccccc4)CC3)c(C)cc2C1=O` [Example 243, 6-ethyl-3-methyl-2-(4-phenoxypiperidin-1-yl)-6,7-dihydro-5H-pyrrolo[3,4-b]pyridin-5-one] gave a pEC50 of 7.14. For `Cc1cc2c(nc1N1CCC(OC[C@]3(C)C[C@H]3F)CC1)CNC2=O` (single isomer, unassigned) [Example 160C], the pEC50 was 7.24. For `Cc1cc2c(nc1N1CCC(OCC(C)(C)C)CC1)CNC2=O` [Example 182, 3-methyl-2-(4-(neopentyloxy)piperidin-1-yl)-6,7-dihydro-5H-pyrrolo[3,4-b]pyridin-5-one], the pEC50 was 5.42. Molecule `Cc1c(N2CCC(Oc3ccc(F)cc3)CC2)nc2c(c1C)C(=O)N(CCO)C2` [Example 266, 2-(4-(4-fluorophenoxy)piperidin-1-yl)-6-(2-hydroxyethyl)-3,4-dimethyl-6,7-dihydro-5H-pyrrolo[3,4-b]pyridin-5-one] has a pEC50 of 6.98. For `Cc1cc2c(nc1N1CCC(Oc3ccc4c(c3)COC4)CC1)[C@H](CO)N(C)C2=O` [Example 282, (R)-2-(4-((1,3-dihydro-2-benzofuran-5-yl)oxy)piperidin-1-yl)-7-(hydroxymethyl)-3,6-dimethyl-6,7-dihydro-5H-pyrrolo[3,4-b]pyridin-5-one], the pEC50 was 6.21. `COc1ccc(OC2CCN(c3nc4c(cc3C)C(=O)N[C@@H]4CO)CC2)cn1` (single isomer, unassigned) [Example 271B] was tested, and the pEC50 was 7.42. Molecule `Cc1c(N2CCC(OCC3(C)CC3(F)F)CC2)nc2c(c1C)C(=O)N(CCO)C2` (stereo not drawn) [Example 259A, 2-(4-((2,2-difluoro-1-methylcyclopropyl)methoxy)piperidin-1-yl)-6-(2-hydroxyethyl)-3,4-dimethyl-6,7-dihydro-5H-pyrrolo[3,4-b]pyridin-5-one] has a pEC50 of 6.93. `CCC1(COC2CCN(c3nc4c(cc3C)C(=O)NC4)CC2)CC1` [Example 186, 2-(4-((1-ethylcyclopropyl)meth-oxy)piperidin-1-yl)-3-methyl-6,7-dihydro-5H-pyrrolo[3,4-b]pyridin-5-one] showed a pEC50 of 7.11. For `CCN1Cc2nc(N3CCC(Oc4ccc(OC)nc4)CC3)c(C)cc2C1=O` [Example 232, 6-Ethyl-2-(4-((6-methoxypyridin-3-yl)oxy)piperidin-1-yl)-3-methyl-6,7-dihydro-5H-pyrrolo[3,4-b]pyridin-5-one], the pEC50 was 7.09. Work on `CO[C@@H]1Cc2ccc(OC3CCN(c4nc5c(c(C)c4C)C(=O)NC5)CC3)cc2C1` [Example 335A, (R)-2-(4-((2-methoxy-2,3-dihydro-1H-inden-5-yl)oxy)piperidin-1-yl)-3,4-dimethyl-6,7-dihydro-5H-pyrrolo[3,4-b]pyridin-5-one] yielded a pEC50 of 6.61. For `CCc1cc2c(nc1N1CC[C@@H](Oc3cnc4c(c3)COC4)[C@H](F)C1)CNC2=O` [Example 213A, 2-((3R,4R)-4-((5,7-dihydrofuro[3,4-b]pyridin-3-yl)oxy)-3-fluoropiperidin-1-yl)-3-ethyl-6,7-dihydro-5H-pyrrolo[3,4-b]pyridin-5-one], the pEC50 was 6.90. Molecule `Cc1cc2c(nc1N1CC[C@H](Oc3cccc(C#N)c3)[C@@H](F)C1)CNC2=O` [Example 20, 3-(((3S,4S)-3-fluoro-1-(3-methyl-5-oxo-6,7-dihydro-5H-pyrrolo[3,4-b]pyridin-2-yl)piperidin-4-yl)oxy)benzonitrile] has a pEC50 of 7.08. `Cc1cc2c(nc1N1CC[C@@H](Oc3ccc4c(cnn4C)c3)[C@@H](F)C1)CN(C)C2=O` [Example 31, 2-((3S,4R)-3-fluoro-4-((1-methyl-1H-indazol-5-yl)oxy)piperidin-1-yl)-3,6-dimethyl-6,7-dihydro-5H-pyrrolo[3,4-b]pyridin-5-one] was tested, and the pEC50 was 7.38.
